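Protocol summary: plate cells (96-well), add compound at 5 concentrations, incubate 48 h, interpolate endpoints linearly. At the TGI there is no net growth.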

Some test systems named below: A549 NSCLC; HCC-2998 colon; RXF 393 renal; SK-MEL-28 melanoma; NCI-H226 lung; SW-620 colon; MALME-3M melanoma; OVCAR-3 ovarian; SF-539 CNS; MCF7 breast; OVCAR-5 ovarian; OVCAR-4 ovarian.
Holding throughout (assay): NCI tumour cell line growth inhibition, 48 h

Consider `Nc1cn(Cc2ccccc2)c2nc(/C=C3/C=CC=CC3=O)c(O)n12`, for which the TGI in the assay on A549 NSCLC, with HCC-2998 colon, with RXF 393 renal, in the assay with SK-MEL-28 melanoma, with NCI-H226 lung and with SW-620 colon was greater than 100 µM each time. For the same molecule, the TGI in the assay with MALME-3M melanoma, in the assay with OVCAR-3 ovarian, in the assay with SF-539 CNS, with MCF7 breast, with OVCAR-5 ovarian and in the assay on OVCAR-4 ovarian was greater than 100 µM throughout.
`COc1ccc(-c2c(CN3CCOCC3)sc3nc4ccccc4n23)cc1`: the TGI was greater than 86.1 µM in the assay with A549 NSCLC; 99.2 µM in the assay with HCC-2998 colon; greater than 47.5 µM with RXF 393 renal; 98.6 µM with SK-MEL-28 melanoma; greater than 79.8 µM with NCI-H226 lung; greater than 100 µM in the assay on SW-620 colon. Further, the TGI in the assay on MALME-3M melanoma was greater than 100 µM; in the assay with OVCAR-3 ovarian, greater than 80.9 µM; with SF-539 CNS it was 41.7 µM; in the assay on MCF7 breast it was greater than 100 µM; with OVCAR-5 ovarian, greater than 74.7 µM; in the assay on OVCAR-4 ovarian, greater than 100 µM.
Turning to `O=C1c2c(ccc3c2CCC3)CC12Cc1cc3c(cc1C2)CCC3`, the TGI with A549 NSCLC, in the assay on HCC-2998 colon, with RXF 393 renal, with SK-MEL-28 melanoma, in the assay with NCI-H226 lung and in the assay on SW-620 colon was greater than 100 µM each time. Moreover, the TGI in the assay with MALME-3M melanoma, in the assay with OVCAR-3 ovarian, with SF-539 CNS, in the assay on MCF7 breast, in the assay with OVCAR-5 ovarian and in the assay with OVCAR-4 ovarian was greater than 100 µM each time.
As for `CC(=O)OCC1OC(N2C(C)=C(C(C)=O)C(c3ccco3)C(C#N)=C2S)C(OC(C)=O)C(OC(C)=O)C1OC(C)=O` (centres undefined), the TGI in the assay with A549 NSCLC, in the assay with HCC-2998 colon, with RXF 393 renal, in the assay on SK-MEL-28 melanoma, in the assay on NCI-H226 lung and in the assay on SW-620 colon was greater than 100 µM throughout. The TGI with MALME-3M melanoma, in the assay on OVCAR-3 ovarian, with SF-539 CNS, in the assay on MCF7 breast, in the assay on OVCAR-5 ovarian and in the assay on OVCAR-4 ovarian was greater than 100 µM in each case.
Turning to `CC(=O)N(CCc1ccccc1)C(C#N)c1ccc(OCCCCCCCCCCOc2ccc(C(C#N)N(CCc3ccccc3)C(C)=O)cc2)cc1` (centres undefined), the TGI with A549 NSCLC was greater than 100 µM; with HCC-2998 colon it was greater than 100 µM; in the assay on RXF 393 renal, 63.2 µM; in the assay with SK-MEL-28 melanoma, greater than 100 µM; in the assay on NCI-H226 lung it was 66.9 µM; with SW-620 colon, greater than 100 µM. The TGI in the assay with MALME-3M melanoma was greater than 100 µM; in the assay with OVCAR-3 ovarian, greater than 100 µM; in the assay on SF-539 CNS, greater than 100 µM; with MCF7 breast, greater than 100 µM; in the assay with OVCAR-5 ovarian, greater than 100 µM; in the assay with OVCAR-4 ovarian it was 44.2 µM.
Turning to `CN(/N=C/c1ccccn1)C1=NCCCCN1`, the TGI in the assay on A549 NSCLC, in the assay on HCC-2998 colon, in the assay on RXF 393 renal, with SK-MEL-28 melanoma, with NCI-H226 lung and in the assay on SW-620 colon was greater than 100 µM each time. Moreover, the TGI in the assay on MALME-3M melanoma, with OVCAR-3 ovarian, in the assay on SF-539 CNS, with MCF7 breast, with OVCAR-5 ovarian and in the assay with OVCAR-4 ovarian was greater than 100 µM in each case.
As for `CN(C)CCCCN1c2ccccc2Sc2cc(N=[N+]=[N-])ccc21`, the TGI amounted to 3.37 µM with A549 NSCLC; 3.37 µM in the assay with HCC-2998 colon; 10.6 µM in the assay on RXF 393 renal; 3.3 µM in the assay on SK-MEL-28 melanoma; 7.9 µM in the assay with NCI-H226 lung; 3.56 µM in the assay with SW-620 colon. The TGI is 3.34 µM in the assay on MALME-3M melanoma; 3.59 µM in the assay on OVCAR-3 ovarian; 3.4 µM with SF-539 CNS; 3.32 µM in the assay with MCF7 breast; 3.76 µM with OVCAR-5 ovarian; 6.35 µM in the assay on OVCAR-4 ovarian.
Consider `CC(=O)NC1C(O)C(O)C(CO)OC1n1ncc(=O)[nH]c1=O` (centres undefined), for which the TGI with A549 NSCLC, in the assay on HCC-2998 colon, in the assay on RXF 393 renal, in the assay on SK-MEL-28 melanoma, in the assay on NCI-H226 lung and in the assay with SW-620 colon was greater than 100 µM in each case. Also, the TGI in the assay on MALME-3M melanoma, in the assay on OVCAR-3 ovarian, in the assay with SF-539 CNS, with MCF7 breast, with OVCAR-5 ovarian and in the assay on OVCAR-4 ovarian was greater than 100 µM throughout.
With `O=C1c2ccccc2C2=Nc3ccncc3CN12`, the TGI in the assay on A549 NSCLC, in the assay on HCC-2998 colon, in the assay with RXF 393 renal, with SK-MEL-28 melanoma, in the assay on NCI-H226 lung and in the assay on SW-620 colon was greater than 100 µM each time. The TGI in the assay on MALME-3M melanoma, with OVCAR-3 ovarian, in the assay on SF-539 CNS, in the assay with MCF7 breast, with OVCAR-5 ovarian and in the assay with OVCAR-4 ovarian was greater than 100 µM throughout.
As for `COc1cccc2c(Nc3ccc(S(=O)(=O)NC(C)=O)cc3)c3ccc([N+](=O)[O-])cc3nc12`, the TGI with A549 NSCLC is greater than 100 µM; in the assay with HCC-2998 colon, greater than 100 µM; with RXF 393 renal, greater than 100 µM; in the assay with SK-MEL-28 melanoma it was greater than 79.5 µM; in the assay with NCI-H226 lung it was greater than 64.7 µM; with SW-620 colon it was greater than 79.8 µM. Besides, the TGI in the assay on MALME-3M melanoma was greater than 87 µM; with OVCAR-3 ovarian, greater than 90.4 µM; in the assay with SF-539 CNS it was greater than 100 µM; with MCF7 breast, greater than 100 µM; with OVCAR-5 ovarian it was greater than 100 µM; in the assay with OVCAR-4 ovarian, greater than 100 µM.
With `Cc1cc(NCCCCCCCCCC[n+]2c(C)cc(N)c3ccccc32)c2ccccc2n1`, the TGI in the assay on A549 NSCLC is 61.8 µM; in the assay with HCC-2998 colon, 6.01 µM; in the assay on RXF 393 renal, greater than 100 µM; in the assay on SK-MEL-28 melanoma it was 3.82 µM; with NCI-H226 lung it was greater than 100 µM; in the assay on SW-620 colon, 21.2 µM. Further, the TGI is 18.5 µM in the assay with MALME-3M melanoma; 65.9 µM with OVCAR-3 ovarian; greater than 100 µM in the assay with SF-539 CNS; greater than 100 µM with MCF7 breast; 24.7 µM in the assay with OVCAR-5 ovarian; greater than 100 µM in the assay with OVCAR-4 ovarian.
With `CC(=O)OC1COC(n2c(-c3ccc(Cl)cc3)cc(-c3ccccc3)c(C#N)c2=S)C(OC(C)=O)C1OC(C)=O` (centres undefined), the TGI was 30.6 µM in the assay with A549 NSCLC; greater than 90.3 µM in the assay on HCC-2998 colon; 26.9 µM with RXF 393 renal; greater than 45.8 µM in the assay on SK-MEL-28 melanoma; 32.3 µM in the assay on NCI-H226 lung; greater than 100 µM with SW-620 colon. Moreover, the TGI in the assay with MALME-3M melanoma was greater than 100 µM; in the assay with OVCAR-3 ovarian, 18.2 µM; in the assay with SF-539 CNS, 15.2 µM; in the assay with MCF7 breast, greater than 100 µM; in the assay with OVCAR-5 ovarian, greater than 100 µM; in the assay with OVCAR-4 ovarian, 11.1 µM.
For `CCCCCC(CO)C(O)(C(F)(F)F)C(F)(F)F` (centres undefined), the TGI in the assay with A549 NSCLC, with HCC-2998 colon, with RXF 393 renal, in the assay on SK-MEL-28 melanoma, in the assay on NCI-H226 lung and with SW-620 colon was greater than 10 µM each time. Also, the TGI in the assay on MALME-3M melanoma, in the assay with OVCAR-3 ovarian, in the assay on SF-539 CNS, in the assay on MCF7 breast, in the assay on OVCAR-5 ovarian and with OVCAR-4 ovarian was greater than 10 µM throughout.
Turning to `CC1(C)CCCCCCC2OC2CCCCCC(C)(C)C1=O` (centres undefined), the TGI in the assay with A549 NSCLC was greater than 100 µM; in the assay on HCC-2998 colon, greater than 70.8 µM; with RXF 393 renal, 49.5 µM; with SK-MEL-28 melanoma, greater than 100 µM; in the assay on NCI-H226 lung, greater than 94.4 µM; in the assay on SW-620 colon, greater than 100 µM. In addition, the TGI in the assay on MALME-3M melanoma was greater than 100 µM; in the assay on OVCAR-3 ovarian, greater than 100 µM; in the assay with SF-539 CNS, greater than 100 µM; in the assay on MCF7 breast it was greater than 73.3 µM; with OVCAR-5 ovarian, greater than 100 µM; with OVCAR-4 ovarian, greater than 100 µM.
With `COc1c2ccccc2c(OC)c2nc(C)ccc12`, the TGI in the assay with A549 NSCLC, in the assay on HCC-2998 colon, in the assay with RXF 393 renal, with SK-MEL-28 melanoma, with NCI-H226 lung and with SW-620 colon was greater than 100 µM each time. The TGI in the assay on MALME-3M melanoma, in the assay on OVCAR-3 ovarian, with SF-539 CNS, with MCF7 breast, with OVCAR-5 ovarian and with OVCAR-4 ovarian was greater than 100 µM each time.
With `C[C@H]1C[C@H](C)c2ccccc2N(C)C1=Nc1ccccc1`, the TGI was greater than 100 µM with A549 NSCLC; greater than 100 µM in the assay with HCC-2998 colon; 92.2 µM with RXF 393 renal; greater than 100 µM with SK-MEL-28 melanoma; 83.6 µM in the assay on NCI-H226 lung; greater than 100 µM in the assay with SW-620 colon. For the same molecule, the TGI with MALME-3M melanoma is 71.4 µM; in the assay with OVCAR-3 ovarian it was 80 µM; in the assay with SF-539 CNS it was greater than 100 µM; in the assay with MCF7 breast, greater than 100 µM; with OVCAR-5 ovarian it was 78 µM; in the assay with OVCAR-4 ovarian, greater than 100 µM.
In the case of `O=C(O)c1ccc2c(c1)CC1(C2)Cc2ccccc2C1=O` (centres undefined), the TGI in the assay with A549 NSCLC, in the assay with HCC-2998 colon, with RXF 393 renal, in the assay on SK-MEL-28 melanoma, in the assay on NCI-H226 lung and with SW-620 colon was greater than 100 µM in each case. Besides, the TGI in the assay on MALME-3M melanoma, with OVCAR-3 ovarian, in the assay on SF-539 CNS, in the assay on MCF7 breast, in the assay on OVCAR-5 ovarian and in the assay on OVCAR-4 ovarian was greater than 100 µM each time.

The values are drawn from PubChem BioAssay (NCI).
